Data: patent US10759791B2, “Mammalian and bacterial nitric oxide synthase inhibitors” (Northwestern University, priority 2014, dated 2020)
pKi: −log10 of the molar value.

Tests used:
rat nNOS = rat nNOS (Rattus norvegicus (Rat), UniProt P29476); test: Oxyhemoglobin NO assay, Ki (Table 9); type: biochemical; conditions: for e/n: ratio Ki eNOS to Ki rat nNOS; for i/n: ratio Ki iNOS to Ki rat nNOS
Procedure: (§1) Oxyhemoglobin assays. The oxyhemoglobin NO assays were performed with purified NOSs using a Biotek Gen5TM microplate reader as previously reported. […] For iNOS, calmodulin and CaCl2) were omitted because iNOS is calcium independent. […] The calculated standard deviations of the assays were less than 10% with all NOSs. […] The selectivity of antagonism of nNOS was determined by calculating the ratios of the Ki values with iNOS or eNOS to those with rat nNOS.

human nNOS = human nNOS (Homo sapiens (Human), UniProt P29475); test: Oxyhemoglobin NO assay, Ki (Table 9); type: biochemical
Procedure: as §1

Compound: CNCCN(C)c1cccc(CCc2cc(C)cc(N)n2)c1 [Compound 10a, N^1-(3-(2-(6-Amino-4-methylpyridin-2-yl)ethyl)phenyl)-N^1,N^2-dimethylethane-1,2-diamine]
- e/n (rat nNOS): 156
- i/n (rat nNOS): 41

Compound: Cc1cc(N)nc(CCc2cccc(NCCN(C)C)c2)c1 [Compound 10b, N^1-(3-(2-(6-Amino-4-methylpyridin-2-yl)ethyl)phenyl)-N^2,N^2-dimethylethane-1,2-diamine]
- e/n (rat nNOS): 125
- i/n (rat nNOS): 29

Compound: Cc1cc(N)nc(CCc2cccc(N(C)CCN)c2)c1 [Compound 10c, N^1-(3-(2-(6-Amino-4-methylpyridin-2-yl)ethyl)phenyl)-N^1-methylethane-1,2-diamine]
- e/n (rat nNOS): 172
- i/n (rat nNOS): 47

Compound: Cc1cc(N)nc(CCc2cccc(N(C)CCCN)c2)c1 [Compound 10d, N^1-(3-(2-(6-Amino-4-methylpyridin-2-yl)ethyl)phenyl)-N-methylpropane-1,3-diamine]
- e/n (rat nNOS): 25
- i/n (rat nNOS): 11

Compound: CNCCN(C)c1cc(CCc2cc(C)cc(N)n2)cc(C(F)(F)F)c1 [Compound 19a, N^1-(3-(2-(6-Amino-4-methylpyridin-2-yl)ethyl)-5-(trifluoromethyl)phenyl)-N^1,N^2-dimethylethane-1,2-diamine]
- e/n (rat nNOS): 238
- i/n (rat nNOS): 122

Compound: CCNCCN(C)c1cc(C#N)cc(CCc2cc(C)cc(N)n2)c1 [Compound 21a]
- e/n (rat nNOS): 583.7
- i/n (rat nNOS): 178.0
- pKi (human nNOS): 6.65

Compound: Cc1cc(N)nc(CCc2cc(C#N)cc(N(C)CCNC(C)C)c2)c1 [Compound 21b]
- e/n (rat nNOS): 320.1
- i/n (rat nNOS): 361.5
- pKi (human nNOS): 6.45

Compound: Cc1cc(N)nc(CCc2cc(C#N)cc(N(C)CCNC3CC3)c2)c1 [Compound 21c]
- e/n (rat nNOS): 274.0
- i/n (rat nNOS): 246.6
- pKi (human nNOS): 6.42

Compound: Cc1cc(N)nc(CCc2cc(C#N)cc(N(C)CCc3cccc(F)c3)c2)c1 [Compound 21d]
- i/n (rat nNOS): 33.7

Compound: Cc1cc(N)nc(CCc2cc(F)cc(NCCN(C)C)c2)c1 [Compound 23a, N^1-(3-(2-(6-Amino-4-methylpyridin-2-yl)ethyl)-5-fluorophenyl)-N^2,N^2-dimethylethane-1,2-diamine]
- e/n (rat nNOS): 136.9
- i/n (rat nNOS): 47.3
- pKi (human nNOS): 6.12

Compound: CCNCCN(C)c1cc(F)cc(CCc2cc(C)cc(N)n2)c1 [Compound 23b, N^1-(3-(2-(6-Amino-4-methylpyridin-2-yl)ethyl)-5-fluorophenyl)-N^2-ethyl-N^1-methylethane-1,2-diamine]
- e/n (rat nNOS): 558.4
- i/n (rat nNOS): 199.4
- pKi (human nNOS): 6.71

Compound: Cc1cc(N)nc(CCc2cc(F)cc(N(C)CCNC3CC3)c2)c1 [Compound 23c, N^1-(3-(2-(6-Amino-4-methylpyridin-2-yl)ethyl)-5-fluorophenyl)-N^2-cyclopropyl-N^1-methylethane-1,2-diamine]
- e/n (rat nNOS): 124.3
- i/n (rat nNOS): 217.8
- pKi (human nNOS): 6.61

Compound: CCN(CCNC)c1cc(F)cc(CCc2cc(C)cc(N)n2)c1 [Compound 23d, N^1-(3-(2-(6-Amino-4-methylpyridin-2-yl)ethyl)-5-fluorophenyl)-N^1-ethyl-N^2-methylethane-1,2-diamine]
- e/n (rat nNOS): 93.2
- i/n (rat nNOS): 109.6
- pKi (human nNOS): 6.86

Compound: CNCCN(c1cc(F)cc(CCc2cc(C)cc(N)n2)c1)C1CC1 [Compound 23e, N^1-(3-(2-(6-amino-4-methylpyridin-2-yl)ethyl)-5-fluorophenyl)-N^1-cyclopropyl-N^2-methylethane-1,2-diamine]
- e/n (rat nNOS): 140.9
- i/n (rat nNOS): 148.7
- pKi (human nNOS): 6.62

Compound: Cc1cc(N)nc(CCc2cc(F)cc(NCc3cccc(Cl)c3)c2)c1 [Compound 23f, 6-(3-((3-Chlorobenzyl)amino)-5-fluorophenethyl)-4-methylpyridin-2-amine]
- e/n (rat nNOS): 262.0
- i/n (rat nNOS): 354.1
- pKi (human nNOS): 5.68

Compound: Cc1cc(N)nc(CCc2cc(F)cc(NCc3cccnc3)c2)c1 [Compound 23g, 6-(3-Fluoro-5-((pyridin-3-ylmethyl)amino)phenethyl)-4-methylpyridin-2-amine]
- e/n (rat nNOS): 10.0
- i/n (rat nNOS): 10.7
- pKi (human nNOS): 6.59
